This note sets out measurements from ChEMBL document CHEMBL4257485, “The critical role of novel benzophenone analogs on tumor growth inhibition targeting angiogenesis and apoptosis” (Medchemcomm, 2018).

Assay [1] concerns A549. Briefly: Cytotoxicity against human A549 cells after 48 hrs by MTT assay. The class given is functional, cell-based. The conditions noted are these: A549, 48 h. For orientation: Tetrazolium dyes change colour on reduction, which living cells bring about.
The subject of assay [2] is HeLa. Briefly: Cytotoxicity against human HeLa cells after 48 hrs by MTT assay. The class given is functional, cell-based.
The subject of assay [3] is MCF7. Briefly: Cytotoxicity against human MCF7 cells after 48 hrs by LDH release assay. The class given is functional, cell-based. Conditions: MCF7, 48 h. For orientation: Release of lactate dehydrogenase indicates damage to the cell membrane.
Assay [4] deals with MCF7. Briefly: Cytotoxicity against human MCF7 cells after 48 hrs by trypan blue exclusion assay. The class given is functional, cell-based. Conditions: MCF7, 48 h.
Assay [5] has as its system NIH3T3. Briefly: Cytotoxicity against mouse NIH/3T3 cells after 48 hrs by MTT assay. In kind it is cell-based. The conditions noted are these: NIH3T3, 48 h.
The test system of assay [6] is A549. Nature of the assay: Cytotoxicity against human A549 cells after 48 hrs by trypan blue exclusion assay. The class given is functional, cell-based. Conditions: A549, 48 h.
Assay [7] relates to NIH3T3. Nature of the assay: Cytotoxicity against mouse NIH/3T3 cells after 48 hrs by trypan blue exclusion assay. The class given is cell-based. The conditions noted are these: NIH3T3, 48 h.
The test system of assay [8] is A549. Briefly: Cytotoxicity against human A549 cells after 48 hrs by LDH release assay. Conditions: A549, 48 h. In kind it is functional, cell-based.
In assay [9] the test system is HeLa. Briefly: Cytotoxicity against human HeLa cells after 48 hrs by trypan blue exclusion assay. The class given is functional, cell-based.
The subject of assay [10] is HeLa. Nature of the assay: Cytotoxicity against human HeLa cells after 48 hrs by LDH release assay. The class given is functional, cell-based.
In assay [11] the test system is MCF7. Nature of the assay: Cytotoxicity against human MCF7 cells after 48 hrs by MTT assay. The class given is functional, cell-based. Conditions: MCF7, 48 h.
Assay [12] deals with NIH3T3. Nature of the assay: Cytotoxicity against mouse NIH/3T3 cells after 48 hrs by LDH release assay. In kind it is cell-based. Conditions: NIH3T3, 48 h.

Turning to `O=C(COc1c(F)cc(C(=O)c2ccc(F)cc2)cc1Cl)NNC(=O)c1ccc(=O)oc1`, the IC50 – broadly, the concentration that gives 50% inhibition – turned out to be 58.8 µM in assay [1]; 59.9 µM in assay [2]; 61.1 µM in assay [3]; 62.2 µM in assay [4]; 87.8 µM in assay [5]; 56.7 µM in assay [6]. For the same compound, the IC50 in assay [7] was found to be 85.4 µM; in [8], 60.2 µM; in [9], 59.2 µM; in assay [10], 60.1 µM; in assay [11], 63.2 µM; in assay [12], 89.8 µM.
As to `O=C(COc1c(F)cc(C(=O)c2ccc(Cl)cc2)cc1Cl)NNC(=O)c1ccc(=O)oc1`, the IC50 in assay [1] came out at 88.8 µM; in assay [2], 87.1 µM; in assay [3], 83.8 µM; in assay [4] it was 90.6 µM; in assay [5] it was 77.6 µM; in assay [6], 86.7 µM. Moreover, the half-maximal inhibitory concentration (IC50) turned out to be 79.3 µM in [7]; 84.9 µM in assay [8]; 89.6 µM in [9]; 85.1 µM in assay [10]; 86.2 µM in assay [11]; 78.6 µM in [12].
Consider `O=C(COc1ccc(C(=O)c2ccccc2)cc1)NNC(=O)c1ccc(=O)oc1`, for which the IC50 in assay [1] stood at 98.8 µM; in assay [2] it was 99.1 µM; in assay [3], 61.1 µM; in [4], 92.9 µM; in assay [5] it was 87.3 µM; in assay [6], 96.7 µM. Further, the IC50 in assay [7] is 84.3 µM; in [8] it was 90.9 µM; in assay [9] it was 89.2 µM; in [10], 96.1 µM; in assay [11], 93.2 µM; in [12] it was 88.2 µM.
For the compound `Cn1cnc(C(=O)NNC(=O)COc2c(F)cc(C(=O)c3ccc(Cl)cc3)cc2Cl)c1`, the IC50 in assay [1] amounted to 49.1 µM; in assay [3], 44.4 µM; in [4] it was 47.3 µM; in assay [5], 87.8 µM; in [6], 47.3 µM; in assay [7] it was 90.9 µM. The IC50 came out at 45.8 µM in assay [8]; 51.6 µM in [9]; 54.5 µM in assay [10]; 43.1 µM in assay [11]; 89.3 µM in [12].
